System: disease model cells (neurons derived from the 1464R cell line forcibly expressing wild-type and mutant TDP-43)
Assay: RNA-seq gene expression analysis in disease model cells
Format: cell-based, rat
Description: Using both vectors (a) and (b), the differentiated cell line in the infection medium was infected with adenovirus at a multiplicity of infection of 50, and cultured for 24 hours. As a result, neurons derived from the 1464R cell line, in which both wild-type and mutant TDP-43 were forcibly expressed intracellularly (hereinafter, also referred to as disease model cells), were obtained.
In the present evaluation, a 6-well plate treated with poly-L-lysine was used, cells were seeded at a density of 1×10^6 cells per well, cultured under the conditions of (1) of Example 1, and differentiated cells were used.
(3) Group 3 (TDP-43+EA exposed group; represented as ‘Group 3’ in FIG. 4 and FIGS. 7-11): After preparing the disease model cells expressing TDP-43, the cells were cultured in differentiation medium free of Eda but containing EA (final concentration 20 μmol/L) for 24 hours. This experimental group forcibly expresses TDP-43 and simulates conditions where the target has a neurodegenerative disease and remains untreated.
(4) Group 4 (TDP-43+EA+Eda exposed group; represented as ‘Group 4’ in FIG. 4 and FIGS. 7-11): After preparing the disease model cells expressing TDP-43, the cells were cultured in differentiation medium containing Eda (final concentration 50 μmol/L) but free of EA for 24 hours. After that, EA (final concentration 20 μmol/L) was further added, and the cells were further cultured for an additional 24 hours. This experimental group simulates conditions where the target with a neurodegenerative disease is administered or exposed to Eda.
After the culture was completed, cell pellets containing 1×10^6 or more cells were obtained from the experimental groups (1)-(4). Total RNA was extracted from these cell pellets using NucleoSpin RNA (manufactured by Macherey-Nagel) according to a product protocol.
Using the extracted total RNA (1.0 ng) as a template, double-stranded cDNA was synthesized using the SMART method using the SMART-Seq v4 Ultra (registered trademark) Low Input RNA Kit for Sequencing (manufactured by Clontech) according to a product protocol.
Next, using the NovaSeq6000 system (NovaSeq6000 S4 reagent kit, NovaSeq Xp4 lane kit, and NovaSeq control software (version 1.6.0); all manufactured by Illumina), sequences of the cDNA library were determined according to a product protocol.
Next, using the DRAGEN Bio-IT platform software (version 3.6.3, manufactured by Illumina) and referring to the rat genome assembly (version 6.0, top-level) and transcript annotation (release 101) obtained from the Ensembl database, types and abundance of genes were identified from the 150-base sequence information contained in the FASTQ files mentioned above.
An RNA expression level (TPM) of a transcription product i measured from the cDNA library of the experimental groups was calculated based on alignment to the rat genome and transcription product annotation from the Ensembl database, according to the following equation (A).
Differential expression analysis was performed using DESeq2 (a package for two-group comparison) in the statistical analysis software R (version 3.6.0) to calculate a log 2 ratio of RNA expression levels and a significance test. The log 2 ratio is a value expressed as “log 2 ([expression level of a first measurement target]/[expression level of a second measurement target]).”
The significance test was performed based on a p-value calculated by Wald test with multiple testing correction based on the Benjamini-Hochberg method (BH method).
In the present analysis, a gene with an absolute log 2 ratio of 1 or more (expression change ratio of 2.0 times or more or 0.50 times or less) and a p-value of 0.01 or less from the Wald test between any two groups was identified as a “gene with a change in expression level” (differentially expressed gene; DEG).
The X-axis represents a first principal component, and the Y-axis represents a second principal component, with their respective contribution rates expressed as percentages. […]

[1] = Group 3 (TDP43 + EA) vs Group 2 (Eda)
[2] = Group 4 (TDP43 + EA + Eda) vs Group 1 (control)
[3] = Group 4 (TDP43 + EA + Eda) vs Group 2 (Eda)
[4] = Group 4 (TDP43 + EA + Eda) vs Group 3 (TDP43 + EA)
[5] = Group 4 (TDP43+EA+Eda 50 μmol/L) vs Group 3 (TDP43+EA), RNA expression
[6] = in the presence of edaravone, TDP-43 mutant protein present

`CC1=NN(c2ccccc2)C(=O)C1` [edaravone, 5-methyl-2-phenyl-2,4-dihydro-3H-pyrazol-3-one] was tested, and the “number of downregulated genes (DEGs)” value [1] was 478, the “number of upregulated genes (DEGs)” value [1] was 876 and the “number of downregulated genes (DEGs)” value [2] was 1,095. The “number of upregulated genes (DEGs)” value [2] was 1,654, the “number of downregulated genes (DEGs)” value [3] was 1,130 and the “number of upregulated genes (DEGs)” value [3] was 1,661. For the same compound, the “number of downregulated genes (DEGs)” value [4] was 260, the “number of upregulated genes (DEGs)” value [4] was 169 and the “gene expression profile (principal component analysis of RNA-seq data)” value (Group 4 (TDP43 + EA + Eda) vs Group 3 (TDP43 + EA), FIG. 6) was “distinctly different gene expression profiles”. The “Group 4 to Group 3 log2 ratio: Acsl6 (acyl-CoA synthetase long-chain family member 6)” value [5] was −1.582, the “Group 4 to Group 3 log2 ratio: Cebpb (CCAAT/enhancer binding protein beta)” value [5] was 1.661 and the “Group 4 to Group 3 log2 ratio: Glrx (glutaredoxin)” value [5] was −1.262. The “Group 4 to Group 3 log2 ratio: Ho-1 (hemeoxygenase 1)” value [5] was 1.755, the “Group 4 to Group 3 log2 ratio: HspaS (heat shock protein family A (Hsp70) member 8)” value [5] was 1.151 and the “Group 4 to Group 3 log2 ratio: Hsph1 (heat shock protein family H (Hsp110) member 1)” value [5] was 1.027. The “Group 4 to Group 3 log2 ratio: Mt1 (metallothionein 1)” value [5] was −1.392, the “Group 4 to Group 3 log2 ratio: Nefl (neurofilament light)” value [5] was −1.778 and the “Group 4 to Group 3 log2 ratio: Nfe2l2 (nuclear factor, erythroid 2-like 2)” value [5] was 0.923. The “Group 4 to Group 3 log2 ratio: Nup43 (nucleoporin 43)” value [5] was −0.888, the “Group 4 to Group 3 log2 ratio: Pik3cb” value [5] was 1.157 and the “Group 4 to Group 3 log2 ratio: Plcg2 (phospholipase C, gamma 2)” value [5] was 0.881. For the same compound, the “Group 4 to Group 3 log2 ratio: Plpp3 (phospholipid phosphatase 3)” value [5] was 1.307, the “Group 4 to Group 3 log2 ratio: Ptgds (prostaglandin D2 synthase)” value [5] was 0.954 and the “Group 4 to Group 3 log2 ratio: Sqstm1 (sequestosome 1)” value [5] was 1.225. For the same compound, the “Group 4 to Group 3 log2 ratio: Txndc2 (thioredoxin domain containing 2)” value [5] was 1.153, the “log 2 ratio Group 4/Group 3: Alpl (ALPL)” value (Group 4 (TDP43+EA+Eda 50 μmol/L) vs Group 3 (TDP43+EA), RNA expression, DESeq2) was −1.098 and the “expression level of a gene product of ALPL” value [6] was “decreases”. The “expression level of a gene product of ASF1B” value [6] was “decreases”, the “expression level of a gene product of DCTD” value [6] was “decreases” and the “expression level of a gene product of FAIM2” value [6] was “increases”. The “expression level of a gene product of FCSK” value [6] was “decreases”, the “expression level of a gene product of HAUS4” value [6] was “decreases” and the “expression level of a gene product of ITGB4” value [6] was “decreases”. For the same compound, the “expression level of a gene product of KAZALD1” value [6] was “decreases”, the “expression level of a gene product of MAST1” value [6] was “decreases” and the “expression level of a gene product of MT2A” value [6] was “decreases”. The “expression level of a gene product of NTM” value [6] was “decreases”, the “expression level of a gene product of PTTG1” value [6] was “decreases” and the “expression level of a gene product of SBK1” value [6] was “decreases”. The “expression level of a gene product of SCN2A” value [6] was “decreases” and the “expression level of a gene product of UBE2L6” value [6] was “decreases”.
